Reference: patent US20060014790A1, “Methods of treatment of amyloidosis using spirocyclohexane aspartyl-protease inhibitors” (priority 2004, published 2006)
“And” between values parts separate entries of the source, which are not always exact repeats. Equal values may be shown once.

Target: catD / beta-secretase (BACE)
Test: CatD/BACE selectivity (ratio of IC50 values)
Type: biochemical
Details: each value is an average of four experimental runs; multiple values = more than one experiment
Method: Selectivity was calculated as a ratio of inhibition (IC50) values in which the inhibition of beta-secretase was compared to the inhibition of other aspartyl proteases.
In the following examples, each value is an average of four experimental runs and multiple values for one compound indicate that more than one experiment was conducted.

Row | SMILES | IC50 catD/IC50 BACE
1 | CONC1CCC(NCC(O)C(Cc2cc(F)cc(F)c2)NC(C)=O)(c2cccc(C(C)(C)C)c2)CC1 (single isomer, unassigned) [196A-20 Diastereomer A, N-(4-(1-(3-tert-butylphenyl)-4-(methoxyamino)cyclohexylamino)-1-(3,5-difluorophenyl)-3-hydroxybutan-2-yl)acetamide] | 5.0
2 | CONC1CCC(NCC(O)C(Cc2cc(F)cc(F)c2)NC(C)=O)(c2cccc(C(C)(C)C)c2)CC1 (single isomer, unassigned) [196A-21 Diastereomer B, N-(4-(1-(3-tert-butylphenyl)-4-(methoxyamino)cyclohexylamino)-1-(3,5-difluorophenyl)-3-hydroxybutan-2-yl)acetamide] | 12.3
3 | CNC1CCC(NCC(O)C(Cc2cc(F)cc(F)c2)NC(C)=O)(c2cccc(C(C)(C)C)c2)CC1 (single isomer, unassigned) [196A-26 Diastereomer A, N-(4-(1-(3-tert-butylphenyl)-4-(methylamino)cyclohexylamino)-1-(3,5-difluorophenyl)-3-hydroxybutan-2-yl)acetamide] | >4.7
4 | CNC1CCC(NCC(O)C(Cc2cc(F)cc(F)c2)NC(C)=O)(c2cccc(C(C)(C)C)c2)CC1 (single isomer, unassigned) [196A-28 Diastereomer B, N-(4-(1-(3-tert-butylphenyl)-4-(methylamino)cyclohexylamino)-1-(3,5-difluorophenyl)-3-hydroxybutan-2-yl)acetamide] | >3.9
5 | CC(=O)NC(Cc1cc(F)cc(F)c1)C(O)CNC1(c2cccc(C(C)(C)C)c2)CCC(N)CC1 (single isomer, unassigned) [196A-29 Diastereomer A, N-(4-(1-(3-tert-butylphenyl)-4-aminocyclohexylamino)-1-(3,5-difluorophenyl)-3-hydroxybutan-2-yl)acetamide] | >8.4
6 | CC(=O)NC(Cc1cc(F)cc(F)c1)C(O)CNC1(c2cccc(C(C)(C)C)c2)CCC(N)CC1 (single isomer, unassigned) [196A-30 Diastereomer B, N-(4-(1-(3-tert-butylphenyl)-4-aminocyclohexylamino)-1-(3,5-difluorophenyl)-3-hydroxybutan-2-yl)acetamide] | >8.4
7 | CC(=O)NC(Cc1cc(F)cc(F)c1)C(O)CNC1(c2cccc(C(C)(C)C)c2)CCC(C(F)(F)F)CC1 (single isomer, unassigned) [196A-32 Diastereomer A, N-(4-(1-(3-tert-butylphenyl)-4-(trifluoromethyl)cyclohexylamino)-1-(3,5-difluorophenyl)-3-hydroxybutan-2-yl)acetamide] | 1.7
8 | CC(=O)NC1CCC(NCC(O)C(Cc2cc(F)cc(F)c2)NC(C)=O)(c2cccc(C(C)(C)C)c2)CC1 (single isomer, unassigned) [196A-33 Diastereomer A, N-[3-[4-Acetylamino-1-(3-tert-butyl-phenyl)-cyclohexylamino]-1-(3,5-difluoro-benzyl)-2-hydroxy-propyl]-acetamide] | 34.4
9 | CC(=O)NC(Cc1cc(F)cc(F)c1)C(O)CNC1(c2cccc(C(C)(C)C)c2)CCC(O)(CO)CC1 (single isomer, unassigned) [196A-35 Diastereomer A, N-[3-[1-(3-tert-Butyl-phenyl)-4-hydroxy-4-hydroxymethyl-cyclohexylamino]-1-(3,5-difluoro-benzyl)-2-hydroxy-propyl]-acetamide] | >7.4
10 | CC(=O)NC(Cc1cc(F)cc(F)c1)C(O)CNC1(c2cccc(C(C)(C)C)c2)CCC(O)(CO)CC1 (single isomer, unassigned) [196A-36 Diastereomer B, N-[3-[1-(3-tert-Butyl-phenyl)-4-hydroxy-4-hydroxymethyl-cyclohexylamino]-1-(3,5-difluoro-benzyl)-2-hydroxy-propyl]-acetamide] | >5.3
11 | COC(=O)NC1CCC(NCC(O)C(Cc2cc(F)cc(F)c2)NC(C)=O)(c2cccc(C(C)(C)C)c2)CC1 (single isomer, unassigned) [196A-37 Diastereomer A, methyl 4-(3-acetamido-4-(3,5-difluorophenyl)-2-hydroxybutylamino)-4-(3-tert-butylphenyl)cyclohexylcarbamate] | 7.7
12 | COC(=O)NC1CCC(NCC(O)C(Cc2cc(F)cc(F)c2)NC(C)=O)(c2cccc(C(C)(C)C)c2)CC1 (single isomer, unassigned) [196A-38 Diastereomer B, methyl 4-(3-acetamido-4-(3,5-difluorophenyl)-2-hydroxybutylamino)-4-(3-tert-butylphenyl)cyclohexylcarbamate] | 2.6 and 2.0 and 2.3
13 | CC(=O)NC(Cc1cc(F)cc(F)c1)C(O)CNC1(c2cccc(C(C)(C)C)c2)CCC(N(O)C(C)=O)CC1 (single isomer, unassigned) [196A-39 Diastereomer A] | 9.6
14 | CC(=O)NC(Cc1cc(F)cc(F)c1)C(O)CNC1(c2cccc(C(C)(C)C)c2)CCC(NS(C)(=O)=O)CC1 (single isomer, unassigned) [196A-41 Diastereomer A, N-(4-(1-(3-tert-butylphenyl)-4-(methylsulfonamido)cyclohexylamino)-1-(3,5-difluorophenyl)-3-hydroxybutan-2-yl)acetamide] | 18.1
15 | CC(=O)NC(Cc1cc(F)cc(F)c1)C(O)CNC1(c2cccc(C(C)(C)C)c2)CCC(NS(C)(=O)=O)CC1 (single isomer, unassigned) [196A-42 Diastereomer B, N-(4-(1-(3-tert-butylphenyl)-4-(methylsulfonamido)cyclohexylamino)-1-(3,5-difluorophenyl)-3-hydroxybutan-2-yl)acetamide] | >3.0
16 | CC(=O)NC(Cc1cc(F)cc(F)c1)C(O)CNC1(c2cccc(C(C)(C)C)c2)CCC(NC=O)CC1 (single isomer, unassigned) [196A-43 Diastereomer A, N-(4-(1-(3-tert-butylphenyl)-4-formamidocyclohexylamino)-1-(3,5-difluorophenyl)-3-hydroxybutan-2-yl)acetamide] | 84.5
17 | CNC(=O)NC1CCC(NCC(O)C(Cc2cc(F)cc(F)c2)NC(C)=O)(c2cccc(C(C)(C)C)c2)CC1 (single isomer, unassigned) [196A-45 Diastereomer A, 1-(4-(3-acetamido-4-(3,5-difluorophenyl)-2-hydroxybutylamino)-4-(3-tert-butylphenyl)cyolohexyl)-3-methylurea] | >3.5
18 | CNC(=O)NC1CCC(NCC(O)C(Cc2cc(F)cc(F)c2)NC(C)=O)(c2cccc(C(C)(C)C)c2)CC1 (single isomer, unassigned) [196A-46 Diastereomer B, 1-(4-(3-acetamido-4-(3,5-difluorophenyl)-2-hydroxybutylamino)-4-(3-tert-butylphenyl)cyclohexyl)-3-methylurea] | >1.3
19 | CC(=O)NC(Cc1cc(F)cc(F)c1)C(O)CNC1(c2cccc(C(C)(C)C)c2)CCC([S+](C)[O-])CC1 (stereo not drawn) [196A-34 Mix, N-(4-(1-(3-tert-butylphenyl)-4-(methylsulfinyl)cyclohexylamino)-1-(3,5-difluorophenyl)-3-hydroxybutan-2yl)acetamide] | 2.1
20 | CCc1cccc(C2(NCC(O)C(Cc3cc(F)cc(F)c3)NC(C)=O)CCOCC2)c1 (stereo not drawn) [Example 196A-1, N-{1-(3,5-Difluoro-benzyl)-3-[4-(3-ethyl-phenyl)-tetrahydro-pyran-4-ylamino]-2-hydroxy-propyl}-acetamide] | 3.0 and 2.3 and 2.7
21 | CC(=O)NC(Cc1ccc(O)cc1)C(O)CNC1(c2cccc(C(C)C)c2)CCCCC1 (stereo not drawn) [Example 196A-2, N-{2-Hydroxy-1-(4-hydroxy-benzyl)-3-[1-(3-isopropyl-phenyl)-cyclohexylamino]-propyl}-acetamide] | 3.6 and 4.1 and 3.9
22 | CC(=O)NC(Cc1cccc(F)c1)C(O)CNC1(c2cccc(C(C)C)c2)CCCCC1 (stereo not drawn) [Example 196A-4, N-{1-(3-Fluoro-benzyl)-2-hydroxy-3-[1-(3-isopropyl-phenyl)-cyclohexylamino]-propyl}-acetamide] | 1.1
23 | CC(=O)NC(Cc1cc(F)cc(F)c1)C(O)CNC1(c2cccc(C(C)C)c2)CCC2(CC1)OCCO2 (stereo not drawn) [Example 196A-6, N-{1-(3,5-Difluoro-benzyl)-2-hydroxy-3-[8-(3-isopropyl-phenyl)-1,4-dioxa-spiro[4.5]dec-8-ylamino]-propyl}-acetamide] | 11.4
24 | CC(=O)NC(Cc1cc(F)cc(F)c1)C(O)CNC1(c2cccc(C(C)C)c2)CCS(=O)(=O)CC1 (stereo not drawn) [Example 196A-9, N-{1-(3,5-Difluoro-benzyl)-2-hydroxy-3-[4-(3-isopropyl-phenyl)-1,1-dioxo-hexahydro-1l6-thiopyran-4-ylamino]-propyl}-acetamide] | 1.4
25 | CC(=O)NC(Cc1cc(F)cc(F)c1)C(O)CNC1(c2cccc(C(C)C)c2)CCN(C(C)=O)CC1 (stereo not drawn) [Example 196A-10, N-[3-[1-Acetyl-4-(3-isopropyl-phenyl)-piperidin-4-ylamino]-1-(3,5-difluoro-benzyl)-2-hydroxy-propyl]-acetamide] | 3.2
26 | CC(=O)NC(Cc1cc(F)cc(F)c1)C(O)CNC1(c2cccc(C(C)C)c2)CCN(S(C)(=O)=O)CC1 (stereo not drawn) [Example 196A-11, N-{1-(3,5-Difluoro-benzyl)-2-hydroxy-3-[4-(3-isopropyl-phenyl)-1-methanesulfonyl-piperidin-4-ylamino]-propyl}-acetamide] | 12.7
27 | CC(=O)NC(Cc1cc(F)cc(F)c1)C(O)CNC1(c2cccc(C(C)C)c2)CCN(C(=O)C(F)(F)F)CC1 (stereo not drawn) [Example 196A-12, N-{1-(3,5-Difluoro-benzyl)-2-hydroxy-3-[4-(3-isopropyl-phenyl)-1-(2,2,2-trifluoro-acetyl)-piperidin-4-ylamino]-propyl}-acetamide] | 1.1
